Laboratory results reported in US6355799B1, “Substituted benzene compounds, process for their preparation, and herbicidal and defoliant compositions containing them” (ISK Americas Incorporated, priority 1997, dated 2002).

Experiments:
Type in all cases: in vivo
[1] = test system: redroot pigweed (Amaranthus retroflexus, AMARE); experiment: Pre-emerge test, greenhouse herbicide activity screening; conditions: pre-emerge, rated 14 days after application, 0 = no damage, 100 = complete death
How it was run: (§1)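 Plants grown in 10 cm pots of sandy loam mix received acetone-dissolved compounds through a moving flat-fan nozzle. Doses ranged from 15 to 1000 g ai/ha. Pre-emerge pots were seeded one day earlier, post-emerge pots 8–21 days earlier. Fourteen days on, each pot was graded 0–100 for damage.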

[2] = test system: barnyardgrass (Echinochloa crus-galli, ECHCG); experiment: Post-emerge test, greenhouse herbicide activity screening; conditions: phytotoxicity rating 0-100 (0 no damage, 100 complete death), 14 days after application
How it was run: as §1

[3] = test system: large crabgrass (Digitaria sanguinalis, DIGSA); experiment: as above; conditions: phytotoxicity rating 0-100 (0 no damage, 100 complete death), 14 days after application
How it was run: as §1

[4] = test system: sicklepod (Cassia obtusifolia, CASOB); experiment: as above; conditions: phytotoxicity rating 0-100 (0 no damage, 100 complete death), 14 days after application
How it was run: as §1

[5] = test system: velvetleaf (Abutilon theophrasti, ABUTH); experiment: as above; conditions: phytotoxicity rating 0-100 (0 no damage, 100 complete death), 14 days after application
How it was run: as §1

[6] = test system: johnsongrass (Sorghum halepense, SORHA); experiment: as above; conditions: phytotoxicity rating 0-100 (0 no damage, 100 complete death), 14 days after application
How it was run: as §1

[7] = test system: ivyleaf morningglory (Ipomoea hederacea, IPOHE); experiment: as above; conditions: phytotoxicity rating 0-100 (0 no damage, 100 complete death), 14 days after application
How it was run: as §1

[8] = test system: common ragweed (Ambrosia artemisizfolia L., AMBEL); experiment: as above; conditions: phytotoxicity rating 0-100 (0 no damage, 100 complete death), 14 days after application
How it was run: as §1

[9] = test system: redroot pigweed (Amaranthus retroflexus, AMARE); experiment: as above; conditions: phytotoxicity rating 0-100 (0 no damage, 100 complete death), 14 days after application
How it was run: as §1

[10] = test system: lambsquarters (Chenopodium album, CHEAL); experiment: as above; conditions: phytotoxicity rating 0-100 (0 no damage, 100 complete death), 14 days after application
How it was run: as §1

[11] = test system: barnyardgrass (Echinochloa crus-galli, ECHCG); experiment: Pre-emerge test, greenhouse herbicide activity screening; conditions: pre-emerge, rated 14 days after application, 0 = no damage, 100 = complete death
How it was run: (§2)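 Compounds in acetone were track-sprayed at 15–1000 g ai/ha: pre-emergence onto soil sown the previous day, then top-watered to incorporate and later bottom-watered; post-emergence onto 2–3 leaf plants with 0.25% v/v surfactant, bottom-watered only. Ratings on a 0–100 phytotoxicity scale were taken at day 14.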

[12] = test system: green foxtail (Setaria viridis, SETVI); experiment: as above; conditions: pre-emerge, rated 14 days after application, 0 = no damage, 100 = complete death
How it was run: as §2

[13] = test system: large crabgrass (Digitaria sanguinalis, DIGSA); experiment: as above; conditions: pre-emerge, rated 14 days after application, 0 = no damage, 100 = complete death
How it was run: as §2

[14] = test system: sicklepod (Cassia obtusifolia, CASOB); experiment: as above; conditions: pre-emerge, rated 14 days after application, 0 = no damage, 100 = complete death
How it was run: as §2

[15] = test system: velvetleaf (Abutilon theophrasti, ABUTH); experiment: as above; conditions: pre-emerge, rated 14 days after application, 0 = no damage, 100 = complete death
How it was run: as §2

[16] = test system: johnsongrass (Sorghum halepense, SORHA); experiment: as above; conditions: pre-emerge, rated 14 days after application, 0 = no damage, 100 = complete death
How it was run: as §2

[17] = test system: ivyleaf morningglory (Ipomoea hederacea, IPOHE); experiment: as above; conditions: pre-emerge, rated 14 days after application, 0 = no damage, 100 = complete death
How it was run: as §2

[18] = test system: common ragweed (Ambrosia artemisizfolia L., AMBEL); experiment: as above; conditions: pre-emerge, rated 14 days after application, 0 = no damage, 100 = complete death
How it was run: as §2

[19] = test system: lambsquarters (Chenopodium album, CHEAL); experiment: as above; conditions: pre-emerge, rated 14 days after application, 0 = no damage, 100 = complete death
How it was run: as §2

[20] = test system: upland rice (Oryza sp., var. Tebonnet, RICE); experiment: Pre-emerge test, crop safety; conditions: pre-emerge, rated 14 days after application, 0 = no damage, 100 = complete death
How it was run: (§3)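 Rating: 0–100 visual injury, 14 DAA. Application: acetone, 187 l/ha, 15–1000 g ai/ha, flat-fan track sprayer with nozzle 40–45 cm above soil or canopy. Post-emerge runs used 0.25% v/v surfactant on 2–3 leaf plants.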

[21] = test system: field corn (Zea mays L., var. Dekalb 535, CORN); experiment: Pre-emerge test, crop safety; conditions: pre-emerge, rated 14 days after application, 0 = no damage, 100 = complete death
How it was run: as §3

[22] = test system: upland rice (Oryza sp., var. Tebonnet, RICE); experiment: Post-emerge test, crop safety; conditions: phytotoxicity rating 0-100 (0 no damage, 100 complete death), 14 days after application
How it was run: as §3

[23] = test system: field corn (Zea mays L., var. Dekalb 535, CORN); experiment: Post-emerge test, crop safety; conditions: phytotoxicity rating 0-100 (0 no damage, 100 complete death), 14 days after application
How it was run: as §3

Compound: COc1c(Cl)cc(F)c(-n2c(=O)cc(C(F)(F)F)n(C)c2=O)c1NC(=O)c1ccc(C(C)(C)C)cc1 [2-30]
- Pre-emerge Herbicidal Activity AMARE (phytotoxicity rating, scale 0-100) ([1]; 63 g ai/ha): 0
- Pre-emerge Herbicidal Activity AMARE (phytotoxicity rating, scale 0-100) ([1]; 250 g ai/ha): 0
- Post-emerge Herbicidal Activity ECHCG ([2]; 63 g ai/ha): 0
- Post-emerge Herbicidal Activity ECHCG ([2]; 250 g ai/ha): 0
- Post-emerge Herbicidal Activity DIGSA ([3]; 63 g ai/ha): 0
- Post-emerge Herbicidal Activity DIGSA ([3]; 250 g ai/ha): 0
- Post-emerge Herbicidal Activity CASOB ([4]; 63 g ai/ha): 0
- Post-emerge Herbicidal Activity CASOB ([4]; 250 g ai/ha): 0
- Post-emerge Herbicidal Activity ABUTH ([5]; 63 g ai/ha): 30
- Post-emerge Herbicidal Activity ABUTH ([5]; 250 g ai/ha): 70
- Post-emerge Herbicidal Activity SORHA ([6]; 63 g ai/ha): 0
- Post-emerge Herbicidal Activity SORHA ([6]; 250 g ai/ha): 0
- Post-emerge Herbicidal Activity IPOHE ([7]; 63 g ai/ha): 0
- Post-emerge Herbicidal Activity IPOHE ([7]; 250 g ai/ha): 20
- Post-emerge Herbicidal Activity AMBEL ([8]; 63 g ai/ha): 0
- Post-emerge Herbicidal Activity AMBEL ([8]; 250 g ai/ha): 10
- Post-emerge Herbicidal Activity AMARE ([9]; 63 g ai/ha): 0
- Post-emerge Herbicidal Activity AMARE ([9]; 250 g ai/ha): 20
- Post-emerge Herbicidal Activity CHEAL ([10]; 63 g ai/ha): 0
- Post-emerge Herbicidal Activity CHEAL ([10]; 250 g ai/ha): 50
- Pre-emerge Herbicidal Activity ECHCG (phytotoxicity rating, scale 0-100) ([11]; 63 g ai/ha): 0
- Pre-emerge Herbicidal Activity ECHCG (phytotoxicity rating, scale 0-100) ([11]; 250 g ai/ha): 0
- Pre-emerge Herbicidal Activity SETVI (phytotoxicity rating, scale 0-100) ([12]; 63 g ai/ha): 0
- Pre-emerge Herbicidal Activity SETVI (phytotoxicity rating, scale 0-100) ([12]; 250 g ai/ha): 20
- Pre-emerge Herbicidal Activity DIGSA (phytotoxicity rating, scale 0-100) ([13]; 63 g ai/ha): 0
- Pre-emerge Herbicidal Activity DIGSA (phytotoxicity rating, scale 0-100) ([13]; 250 g ai/ha): 0
- Pre-emerge Herbicidal Activity CASOB (phytotoxicity rating, scale 0-100) ([14]; 63 g ai/ha): 0
- Pre-emerge Herbicidal Activity CASOB (phytotoxicity rating, scale 0-100) ([14]; 250 g ai/ha): 0
- Pre-emerge Herbicidal Activity ABUTH (phytotoxicity rating, scale 0-100) ([15]; 63 g ai/ha): 0
- Pre-emerge Herbicidal Activity ABUTH (phytotoxicity rating, scale 0-100) ([15]; 250 g ai/ha): 20
- Pre-emerge Herbicidal Activity SORHA (phytotoxicity rating, scale 0-100) ([16]; 63 g ai/ha): 0
- Pre-emerge Herbicidal Activity SORHA (phytotoxicity rating, scale 0-100) ([16]; 250 g ai/ha): 0
- Pre-emerge Herbicidal Activity IPOHE (phytotoxicity rating, scale 0-100) ([17]; 63 g ai/ha): 0
- Pre-emerge Herbicidal Activity IPOHE (phytotoxicity rating, scale 0-100) ([17]; 250 g ai/ha): 0
- Pre-emerge Herbicidal Activity AMBEL (phytotoxicity rating, scale 0-100) ([18]; 63 g ai/ha): 0
- Pre-emerge Herbicidal Activity AMBEL (phytotoxicity rating, scale 0-100) ([18]; 250 g ai/ha): 0
- Pre-emerge Herbicidal Activity CHEAL (phytotoxicity rating, scale 0-100) ([19]; 63 g ai/ha): 0
- Pre-emerge Herbicidal Activity CHEAL (phytotoxicity rating, scale 0-100) ([19]; 250 g ai/ha): 70
- Pre-emerge crop damage RICE (phytotoxicity rating, scale 0-100) ([20]; 63 g ai/ha): 0
- Pre-emerge crop damage RICE (phytotoxicity rating, scale 0-100) ([20]; 250 g ai/ha): 0
- Pre-emerge crop damage CORN (phytotoxicity rating, scale 0-100) ([21]; 63 g ai/ha): 0
- Pre-emerge crop damage CORN (phytotoxicity rating, scale 0-100) ([21]; 250 g ai/ha): 0
- Post-emerge Herbicidal Activity RICE (crop damage) ([22]; 63 g ai/ha): 0
- Post-emerge Herbicidal Activity RICE (crop damage) ([22]; 250 g ai/ha): 0
- Post-emerge Herbicidal Activity CORN (crop damage) ([23]; 63 g ai/ha): 0
- Post-emerge Herbicidal Activity CORN (crop damage) ([23]; 250 g ai/ha): 0
